Experimental data: patent US20080221107A1, “Therapeutic Agents” (ASTRAZENECA AB, priority 2005, published 2008)

Tests used:
[1] = molecular target: T1, human Melanin concentrating hormone receptor 1 (hMCHr1) (Homo sapiens, UniProt Q99705); assay: MCHr1 receptor radioligand binding (125I-MCH, membranes from CHO-K1 cells); settings: 125I-MCH displacement, CHO-K1 membranes expressing hMCHr1, 30° C. 60 minutes; read-out: IC50 in human MCHr binding assay
T1 construct: purchased Euroscreen; host or cells: CHO-K1 cells (recombinant expression; membranes)
Description: Assays were performed in a 96-well plate format in a final reaction volume of 200 μl per well. […] Filters were washed with assay buffer.
Non-specific binding was subtracted from all values determined. […] Binding of compounds at various concentrations was plotted according to the equation

hERG = hERG (Homo sapiens, UniProt Q12809); assay: hERG activity (planar-array-based voltage clamp, modified Kiss et al. method); assay type: cell-based
Description: hERG testing was performed using a modified version of the method described by Kiss L, Bennett P B, Uebele V N, Koblan K S, Kane S A, Neagle B, Schroeder K. “High throughput ion-channel pharmacology: planar-array-based voltage clamp.” Assay Drug Dev Technol. 1, 127-35. (2003).

T1 sequence (Q99705 whole entry): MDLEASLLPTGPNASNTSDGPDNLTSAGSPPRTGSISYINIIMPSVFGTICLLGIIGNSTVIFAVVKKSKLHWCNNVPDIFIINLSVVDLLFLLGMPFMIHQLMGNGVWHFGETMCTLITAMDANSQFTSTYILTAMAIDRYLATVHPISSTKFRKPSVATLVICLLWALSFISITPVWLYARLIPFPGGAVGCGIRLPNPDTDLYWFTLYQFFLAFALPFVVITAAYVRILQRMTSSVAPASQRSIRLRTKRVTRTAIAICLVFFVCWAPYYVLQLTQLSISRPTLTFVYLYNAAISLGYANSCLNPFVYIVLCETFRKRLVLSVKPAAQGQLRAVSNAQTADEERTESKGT
hERG, sequence (Q12809 whole entry): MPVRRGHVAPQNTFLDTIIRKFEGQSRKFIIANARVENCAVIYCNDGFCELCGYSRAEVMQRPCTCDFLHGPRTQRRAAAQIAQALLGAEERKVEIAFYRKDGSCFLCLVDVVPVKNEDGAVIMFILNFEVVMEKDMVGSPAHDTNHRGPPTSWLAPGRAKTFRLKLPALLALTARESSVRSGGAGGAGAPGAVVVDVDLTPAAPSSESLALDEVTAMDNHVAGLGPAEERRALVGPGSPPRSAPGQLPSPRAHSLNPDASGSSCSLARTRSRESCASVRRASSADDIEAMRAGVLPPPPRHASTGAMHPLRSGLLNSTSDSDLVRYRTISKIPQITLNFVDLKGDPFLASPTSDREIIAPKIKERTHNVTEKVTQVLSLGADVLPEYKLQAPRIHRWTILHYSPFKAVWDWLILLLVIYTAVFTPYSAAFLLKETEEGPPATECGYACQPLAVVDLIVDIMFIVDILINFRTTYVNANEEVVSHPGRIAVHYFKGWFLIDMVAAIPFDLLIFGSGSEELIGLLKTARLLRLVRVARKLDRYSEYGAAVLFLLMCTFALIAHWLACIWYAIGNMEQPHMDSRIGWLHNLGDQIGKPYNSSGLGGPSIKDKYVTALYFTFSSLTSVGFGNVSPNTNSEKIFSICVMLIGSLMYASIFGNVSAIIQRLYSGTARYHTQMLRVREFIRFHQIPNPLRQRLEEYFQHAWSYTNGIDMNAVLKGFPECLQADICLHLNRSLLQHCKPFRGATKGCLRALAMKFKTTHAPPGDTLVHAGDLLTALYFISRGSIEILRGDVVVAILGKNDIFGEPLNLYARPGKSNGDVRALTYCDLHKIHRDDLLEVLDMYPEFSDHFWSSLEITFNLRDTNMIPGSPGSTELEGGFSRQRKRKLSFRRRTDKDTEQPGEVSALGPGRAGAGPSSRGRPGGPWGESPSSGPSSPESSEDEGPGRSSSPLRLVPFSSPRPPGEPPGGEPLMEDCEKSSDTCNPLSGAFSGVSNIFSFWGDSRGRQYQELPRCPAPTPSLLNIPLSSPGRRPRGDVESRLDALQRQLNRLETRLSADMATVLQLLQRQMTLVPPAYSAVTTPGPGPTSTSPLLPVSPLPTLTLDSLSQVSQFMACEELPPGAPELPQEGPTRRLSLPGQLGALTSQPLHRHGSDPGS

Question: For COc1cc(-n2nnc3cc(-c4ccc(Cl)cc4)sc3c2=O)ccc1N1CC[C@@H](O)C1 [Example 1, 6-(4-Chlorophenyl)-3-{4-[(3R)-3-hydroxypyrrolidin-1-yl]-3-methoxyphenyl}thieno[3,2-d][1,2,3]triazin4(3D)-one], which IC50 [1] is on record?
Answer: The IC50 was 11 nM.

Question: What about the IC50 (hERG) of the same molecule?
Answer: The IC50 was greater than 5000 nM.
